# Reference: patent US20260183297A1, “SELECTION OF PATIENTS FOR THE TREATMENT OF FADS1-MEDIATED DISEASES OR DISORDERS USING FADS-1 INHIBITORS” (AMGEN INC., priority 2022, published 2026)
# What was measured:
# human FADS1 = target: T1, human FADS1 (Homo sapiens, UniProt O60427); assay: In vitro FADS1 activity assay (HEK 293 cells with FADS1 BacMam, 13C5-DGLA substrate); type: cell-based; details: in vitro human FADS1 activity assay
# T1 construct: expressed in transfected cells; host or cells: HEK 293 cells transduced with FADS1 BacMam (MOI 25)
# Description: HEK 293 cells in Dulbecco's Modified Eagle's medium (DMEM), 10% fetal bovine serum (FBS), 1× penicillin-streptomycin-glutamine (PSG) were mixed with FADS1 BacMam or FADS2 BacMam reagents at multiplicity of infection (MOI) ratio of 25 and plated in a in 96-well poly-D-lysine-coated plate. Plates were incubated in a 37° C., 5% CO2 for 24 hours. Cells were washed with DPBS and cells were incubated with 90 ml of compound dilution in DPBS at 5% CO2, 37° C. for 20 minutes. Ten L of the substrate, ^13C5-DGLA (FADS1), or 13C-LA (FADS2) diluted in DPBS were added to the cells and incubated at 5% CO2, 37° C. for 30 minutes (FADS1) or 45 minutes (FADS2). Cells were then washed with DPBS and 50 μL of 2N NaOH were added to each well and incubated in a 65° C. oven for 1 hour for the saponification reaction. […] Samples were then subjected to LC-MS/MS detection for the following analytes for the FADS1 reaction: ^13C5-DGLA and ^13C5-AA or the following analytes for the FADS2 reaction: ^13C18-LA, ^13C18-GLA, ^13C18-DGLA and ^13C18-AA. Samples were injected onto a Poroshell 120 EC-C18 3.0×50 mm, 1.9 um id column (Agilent, Santa Clara, CA).
# FADS2 = target: T2, FADS2 (Mus musculus, UniProt Q9Z0R9); assay: FADS2 inhibition by SC-26196 in DIO mice, plasma PUFA ratios; type: in vivo
# T2 construct: from tissue; host or cells: living DIO mice; plasma GLA/LA and AA/DGLA ratios
# T2 sequence (Q9Z0R9 1-444): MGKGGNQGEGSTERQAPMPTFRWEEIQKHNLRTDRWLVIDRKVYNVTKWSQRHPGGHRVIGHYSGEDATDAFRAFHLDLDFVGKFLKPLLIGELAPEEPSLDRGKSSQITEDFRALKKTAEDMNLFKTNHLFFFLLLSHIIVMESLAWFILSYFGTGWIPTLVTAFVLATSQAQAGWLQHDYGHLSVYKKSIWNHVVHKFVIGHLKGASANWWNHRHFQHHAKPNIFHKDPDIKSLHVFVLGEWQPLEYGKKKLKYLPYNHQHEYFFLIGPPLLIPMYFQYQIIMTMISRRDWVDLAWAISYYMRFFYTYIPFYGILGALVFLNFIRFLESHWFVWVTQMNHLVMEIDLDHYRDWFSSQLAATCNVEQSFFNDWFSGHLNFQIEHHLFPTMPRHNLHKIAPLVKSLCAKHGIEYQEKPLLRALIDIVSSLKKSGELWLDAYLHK
# Description: FIG. 12 One-way ANOVA with Dunnett's test for multiple comparisons, *P<0.05, **P<0.01, ***P<0.001, ****P<0.0001.
# Ten microliter of plasma or PUFA standards diluted in surrogate matrix (60 g/l bovine serum albumin in Dulbecco's phosphate-buffered saline [DPBS]) were mixed with 10 μl of ALA-d14 as the internal stand in a 96-well plate. 100 μl of 2N NaOH was added to the mixture for subsequent saponification at 65° C. for 1 hour. The mixture was then acidified with 50 μl of formic acid followed by two consecutive 500 μl hexane extractions. The organic extracts from the two extractions were combined and the solvent was evaporated under nitrogen gas. Extracts were then resuspended in 250 μl of 90% methanol and analyzed by liquid chromatography with tandem mass spectrometry (LC-MS/MS) for the following PUFAs: LA, GLA, DGLA, and AA, with ALA-d14 as the internal standard. The PUFA peak areas were quantified by using the Analyst software (SCIEX, Framingham, MA).
# mouse FADS1 = target: T3, mouse FADS1 (Mus musculus, UniProt Q920L1); assay: Mouse FADS1 cell-based assay; details: in vitro mouse FADS1 activity assay
# T3 sequence (Q920L1 1-447): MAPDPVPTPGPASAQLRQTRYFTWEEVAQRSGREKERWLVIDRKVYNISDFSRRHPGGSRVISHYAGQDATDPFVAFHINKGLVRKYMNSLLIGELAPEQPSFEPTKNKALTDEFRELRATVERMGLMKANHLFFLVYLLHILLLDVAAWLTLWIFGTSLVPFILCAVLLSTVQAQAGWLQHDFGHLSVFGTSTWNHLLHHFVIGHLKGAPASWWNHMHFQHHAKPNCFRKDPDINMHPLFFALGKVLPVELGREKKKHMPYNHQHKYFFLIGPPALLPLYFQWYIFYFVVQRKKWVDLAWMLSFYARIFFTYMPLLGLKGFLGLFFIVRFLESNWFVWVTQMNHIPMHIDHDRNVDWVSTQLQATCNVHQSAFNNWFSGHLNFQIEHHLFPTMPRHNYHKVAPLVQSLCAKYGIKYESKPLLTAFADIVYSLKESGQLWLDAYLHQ
# Description: (§1) HEK 293 cells in Dulbecco's Modified Eagle's medium (DMEM), 10% fetal bovine serum (FBS), 1× penicillin-streptomycin-glutamine (PSG) were mixed with FADS1 BacMam or FADS2 BacMam reagents at multiplicity of infection (MOI) ratio of 25 and plated in a in 96-well poly-D-lysine-coated plate. Plates were incubated in a 37° C., 5% CO2 for 24 hours. Cells were washed with DPBS and cells were incubated with […] of compound dilution in DPBS at 5% CO2, 37° C. for 20 minutes. Ten L of the substrate, ^13C5-DGLA (FADS1), or 13C-LA (FADS2) diluted in DPBS were added to the cells and incubated at 5% CO2, 37° C. for 30 minutes (FADS1) or 45 minutes (FADS2). Cells were then washed with DPBS and 50 μL of 2N NaOH were added to each well and incubated in a 65° C. oven for 1 hour for the saponification reaction. After cooling to room temperature, 22 μl of formic acid was added followed by the addition of 113 μl of acetonitrile with 1.5 μM ALA-d14 as the internal standard. Samples were then subjected to LC-MS/MS detection for the following analytes for the FADS1 reaction: ^13C5-DGLA and ^13C5-AA or the following analytes for the FADS2 reaction: ^13C18-LA, ^13C18-GLA, ^13C18-DGLA and ^13C18-AA. […]
# (§2) The analyte peak areas were quantified by using the Analyst software (SCIEX, Framingham, MA). The percent of substrate to product conversion relative to untreated control were calculated (percent of control [POC]). […]
# human FADS2 = target: T4, human FADS2 (Homo sapiens, UniProt O95864); assay: In vitro FADS2 activity assay (HEK 293 cells with FADS2 BacMam, 13C-LA substrate); type: cell-based
# T4 construct: expressed in transfected cells; host or cells: HEK 293 cells transduced with FADS2 BacMam (MOI 25)
# T4 sequence (O95864 1-444): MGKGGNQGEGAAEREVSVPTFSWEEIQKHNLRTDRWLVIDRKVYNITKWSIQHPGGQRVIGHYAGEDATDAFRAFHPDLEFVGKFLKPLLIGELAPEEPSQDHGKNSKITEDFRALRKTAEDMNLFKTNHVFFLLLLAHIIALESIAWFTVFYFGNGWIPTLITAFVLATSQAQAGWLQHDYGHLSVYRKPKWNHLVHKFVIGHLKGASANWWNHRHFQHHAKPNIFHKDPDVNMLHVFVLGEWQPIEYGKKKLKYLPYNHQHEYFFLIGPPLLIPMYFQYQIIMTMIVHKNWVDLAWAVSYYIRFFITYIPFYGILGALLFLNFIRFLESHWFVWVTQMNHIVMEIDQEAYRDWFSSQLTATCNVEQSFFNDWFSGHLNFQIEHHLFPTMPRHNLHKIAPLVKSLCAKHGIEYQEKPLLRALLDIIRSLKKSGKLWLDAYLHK
# Description: as §1, §2
# T1 sequence (O60427 whole entry): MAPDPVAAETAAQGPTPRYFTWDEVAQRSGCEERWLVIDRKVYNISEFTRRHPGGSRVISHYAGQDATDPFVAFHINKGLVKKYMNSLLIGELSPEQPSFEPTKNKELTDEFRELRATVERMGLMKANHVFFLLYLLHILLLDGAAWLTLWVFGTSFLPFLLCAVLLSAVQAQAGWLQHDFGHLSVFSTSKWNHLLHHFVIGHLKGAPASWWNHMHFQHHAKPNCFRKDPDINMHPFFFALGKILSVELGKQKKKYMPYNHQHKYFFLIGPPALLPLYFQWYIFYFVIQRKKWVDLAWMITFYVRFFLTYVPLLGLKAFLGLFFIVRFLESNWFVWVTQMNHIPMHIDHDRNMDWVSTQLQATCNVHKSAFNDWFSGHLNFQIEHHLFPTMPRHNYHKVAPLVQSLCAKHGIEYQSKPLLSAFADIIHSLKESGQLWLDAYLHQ
smiles,measurement,setting,value
N#CC(CCCN1CCN(/N=C/c2cccnc2)CC1)(c1ccccc1)c1ccccc1 [SC-26196],effect on FADS1 activity,human FADS1,does not affect FADS1 activity
same,plasma AA/DGLA ratio,FADS2,increased
same,plasma GLA/LA ratio,FADS2,affects
same,effect on FADS1 activity,mouse FADS1,does not affect FADS1 activity
same,effect on FADS2 activity,human FADS2,FADS2 specific inhibitor
